Source: US20090082326A1, “SOLUBLE DOSAGE FORMS CONTAINING CEPHEM DERIVATIVES SUITABLE FOR PARENTERAL ADMINISTRATION” (Forest Laboratories Holdings Limited, priority 2007, published 2009)

Tests used:
Assay type in all cases: physicochemical
[1] = pH solubility profile: one hour and three hour kinetic solubility in USP buffers at 0.05 M; details: aqueous buffer, thermodynamic from solid; for solubility at 1 h / solubility at 3 h: USP buffer 0.05 M, 25° C.
[2] = One hour kinetic solubility in acetic acid/sodium acetate ion mixtures; details: 25 °C, thermodynamic from solid
[3] = One hour kinetic solubility in citric acid/sodium citrate ion mixtures; details: 25 °C, aqueous buffer, thermodynamic from solid
[4] = One hour kinetic solubility in DL arginine mixtures; details: 25 °C, aqueous buffer, thermodynamic from solid
[5] = One hour kinetic solubility in L-arginine mixtures; details: 25 °C, aqueous buffer, thermodynamic from solid
[6] = One hour kinetic solubility in histidine mixtures; details: USP buffer with histidine, 25 °C, aqueous buffer, thermodynamic from solid
[7] = Aqueous solubility (stated in the description); details: water

SMILES: CC(=O)[O-].CCO/N=C(\C(=O)N[C@@H]1C(=O)N2C(C(=O)O)=C(Sc3nc(-c4cc[n+](C)cc4)cs3)CS[C@H]12)c1nsc(NP(=O)(O)O)n1.O [ceftaroline fosamil, (6R,7R)-7-[[2(Z)-ethoxyimino-[5-(phosphonoamino)-1,2,4-thiadiazol-3-yl]acetyl]amino]-3-[[4-(1-methyl-pyridinium-4-yl)thiazol-2-yl]sulfanyl]-8-oxo-5-thia-1-azabicyclo[4.2.0]oct-2-en-2-carboxylate monoacetate monohydrate]
- solubility ([1]; USP buffers, 25 °C, over pH about 3 to about 8, 0.05 M): 25 to 36 mg/mL
- solubility at 1 h ([1]; pH 1.2): 6 mg/mL
- solubility at 3 h ([1]; pH 1.2): 6 mg/mL
- solubility at 1 h ([1]; pH 1.9): 9 mg/mL
- solubility at 3 h ([1]; pH 1.9): 9 mg/mL
- solubility at 1 h ([1]; pH 2.9): 27 mg/mL
- solubility at 3 h ([1]; pH 2.9): 27 mg/mL
- solubility at 1 h ([1]; pH 3.7): 36 mg/mL
- solubility at 3 h ([1]; pH 3.7): 29 mg/mL
- solubility at 1 h ([1]; pH 5.3): 26 mg/mL
- solubility at 3 h ([1]; pH 5.3): 26 mg/mL
- solubility at 1 h ([1]; pH 5.9): 34 mg/mL
- solubility at 3 h ([1]; pH 5.9): 29 mg/mL
- solubility at 1 h ([1]; pH 7.3): 25 mg/mL
- solubility at 3 h ([1]; pH 7.3): 24 mg/mL
- solubility at 1 h ([1]; pH 8.0): 29 mg/mL
- solubility at 3 h ([1]; pH 8.0): 24 mg/mL
- solubility at 1 h ([1]; pH 9.0): 16 mg/mL
- solubility at 3 h ([1]; pH 9.0): 12 mg/mL
- solubility at 1 h ([2]; USP buffer with acetic acid/sodium acetate, pH 2.9, aqueous buffer, pH 2.9, acetic acid/sodium acetate 1.0 M, 25° C., read-out: Solubility at 1 hr): 213 mg/mL
- solubility at 1 h ([2]; USP buffer with acetic acid/sodium acetate, pH 3.1, aqueous buffer, pH 3.1, acetic acid/sodium acetate 0.5 M, 25° C., read-out: Solubility at 1 hr): 126 mg/mL
- solubility at 1 h ([2]; USP buffer with acetic acid/sodium acetate, pH 3.2, aqueous buffer, pH 3.2, acetic acid/sodium acetate 2.0 M, 25° C., read-out: Solubility at 1 hr): 152 mg/mL
- solubility at 1 h ([2]; USP buffer with acetic acid/sodium acetate, pH 3.9, aqueous buffer, pH 3.9, acetic acid/sodium acetate 1.0 M, 25° C., read-out: Solubility at 1 hr): 237 mg/mL
- solubility at 1 h ([2]; USP buffer with acetic acid/sodium acetate, pH 3.9, aqueous buffer, pH 3.9, acetic acid/sodium acetate 2.0 M, 25° C., read-out: Solubility at 1 hr): 273 mg/mL
- solubility at 1 h ([2]; USP buffer with acetic acid/sodium acetate, pH 4.2, aqueous buffer, pH 4.2, acetic acid/sodium acetate 0.5 M, 25° C., read-out: Solubility at 1 hr): 158 mg/mL
- solubility at 1 h ([2]; USP buffer with acetic acid/sodium acetate, pH 4.7, aqueous buffer, pH 4.7, acetic acid/sodium acetate 2.0 M, 25° C., read-out: Solubility at 1 hr): 271 mg/mL
- solubility at 1 h ([2]; USP buffer with acetic acid/sodium acetate, pH 4.8, aqueous buffer, pH 4.8, acetic acid/sodium acetate 1.0 M, 25° C., read-out: Solubility at 1 hr): 235 mg/mL
- solubility at 1 h ([2]; USP buffer with acetic acid/sodium acetate, pH 5.7, aqueous buffer, pH 5.7, acetic acid/sodium acetate 1.0 M, 25° C., read-out: Solubility at 1 hr): 212 mg/mL
- solubility at 1 h ([2]; USP buffer with acetic acid/sodium acetate, pH 5.9, aqueous buffer, pH 5.9, acetic acid/sodium acetate 2.0 M, 25° C., read-out: Solubility at 1 hr): 244 mg/mL
- solubility at 1 h ([2]; USP buffer with acetic acid/sodium acetate, pH 6.9, aqueous buffer, pH 6.9, acetic acid/sodium acetate 1.0 M, 25° C., read-out: Solubility at 1 hr): 207 mg/mL
- solubility at 1 h ([2]; USP buffer with acetic acid/sodium acetate, pH 6.9, aqueous buffer, pH 6.9, acetic acid/sodium acetate 2.0 M, 25° C., read-out: Solubility at 1 hr): 225 mg/mL
- solubility at 1 h ([2]; USP buffer with acetic acid/sodium acetate, pH 7.7, aqueous buffer, pH 7.7, acetic acid/sodium acetate 1.0 M, 25° C., read-out: Solubility at 1 hr): 205 mg/mL
- solubility at 1 h ([2]; USP buffer with acetic acid/sodium acetate, pH 7.8, aqueous buffer, pH 7.8, acetic acid/sodium acetate 2.0 M, 25° C., read-out: Solubility at 1 hr): 212 mg/mL
- solubility at 1 h ([2]; USP buffer with acetic acid/sodium acetate, pH 8.2, aqueous buffer, pH 8.2, acetic acid/sodium acetate 0.5 M, 25° C., read-out: Solubility at 1 hr): 125 mg/mL
- solubility at 1 h ([2]; USP buffer with acetic acid/sodium acetate, pH 8.9, aqueous buffer, pH 8.9, acetic acid/sodium acetate 0.5 M, 25° C., read-out: Solubility at 1 hr): 50 mg/mL
- solubility at 1 h ([2]; USP buffer with acetic acid/sodium acetate, pH 8.9, aqueous buffer, pH 8.9, acetic acid/sodium acetate 1.0 M, 25° C., read-out: Solubility at 1 hr): 102 mg/mL
- solubility at 1 h ([2]; USP buffer with acetic acid/sodium acetate, pH 9, aqueous buffer, pH 9.0, acetic acid/sodium acetate 2.0 M, 25° C., read-out: Solubility at 1 hr): 159 mg/mL
- solubility at 1 h ([2]; acetic acid/sodium acetate buffer, pH 3, aqueous buffer, pH 3.0, acetic acid/sodium acetate 0.1 M, 25° C., read-out: Solubility at 1 hr): 20 mg/mL
- solubility at 1 h ([2]; acetic acid/sodium acetate buffer, pH 3.8, aqueous buffer, pH 3.8, acetic acid/sodium acetate 0.1 M, 25° C., read-out: Solubility at 1 hr): 35 mg/mL
- solubility at 1 h ([2]; acetic acid/sodium acetate buffer, pH 4.6, aqueous buffer, pH 4.6, acetic acid/sodium acetate 0.1 M, 25° C., read-out: Solubility at 1 hr): 36 mg/mL
- solubility at 1 h ([2]; acetic acid/sodium acetate buffer, pH 4.7, aqueous buffer, pH 4.7, acetic acid/sodium acetate 0.5 M, 25° C., read-out: Solubility at 1 hr): 156 mg/mL
- solubility at 1 h ([2]; acetic acid/sodium acetate buffer, pH 5.6, aqueous buffer, pH 5.6, acetic acid/sodium acetate 0.5 M, 25° C., read-out: Solubility at 1 hr): 123 mg/mL
- solubility at 1 h ([2]; acetic acid/sodium acetate buffer, pH 6, aqueous buffer, pH 6.0, acetic acid/sodium acetate 0.1 M, 25° C., read-out: Solubility at 1 hr): 36 mg/mL
- solubility at 1 h ([2]; acetic acid/sodium acetate buffer, pH 6.7, aqueous buffer, pH 6.7, acetic acid/sodium acetate 0.1 M, 25° C., read-out: Solubility at 1 hr): 31 mg/mL
- solubility at 1 h ([2]; acetic acid/sodium acetate buffer, pH 6.8, aqueous buffer, pH 6.8, acetic acid/sodium acetate 0.5 M, 25° C., read-out: Solubility at 1 hr): 133 mg/mL
- solubility at 1 h ([2]; acetic acid/sodium acetate buffer, pH 8.2, aqueous buffer, pH 8.2, acetic acid/sodium acetate 0.1 M, 25° C., read-out: Solubility at 1 hr): 31 mg/mL
- solubility at 1 h ([2]; acetic acid/sodium acetate buffer, pH 9.4, aqueous buffer, pH 9.4, acetic acid/sodium acetate 0.1 M, 25° C., read-out: Solubility at 1 hr): 34 mg/mL
- solubility at 1 h ([2]; acetic acid/sodium acetate ion mixtures, aqueous buffer, at acetate concentrations of 1.0 M and higher, read-out: solubility): > 200 mg/mL
- solubility at 1 h ([3]; USP buffer with citric acid/sodium citrate, citric acid/sodium citrate 0.05 M, 25° C., read-out: Solubility at 1 hr): 121 mg/mL
- solubility at 1 h ([3]; USP buffer with citric acid/sodium citrate, citric acid/sodium citrate 0.1 M, 25° C., read-out: Solubility at 1 hr): 159 mg/mL
- solubility at 1 h ([3]; USP buffer with citric acid/sodium citrate, citric acid/sodium citrate 0.5 M, 25° C., read-out: Solubility at 1 hr): 240 mg/mL
- solubility at 1 h ([3]; USP buffer with citric acid/sodium citrate, citric acid/sodium citrate 1.0 M, 25° C., read-out: Solubility at 1 hr): 245 mg/mL
- solubility at 1 h ([3]; citric acid/sodium citrate ion mixtures, at citrate concentrations of 0.5 M and higher, read-out: solubility): > 200 mg/mL
- solubility at 1 h ([4]; DL arginine mixtures, at DL arginine concentrations of 1.0 M and higher, read-out: solubility): > 200 mg/mL
- solubility at 1 h ([4]; USP buffer with DL arginine, DL arginine 0.05 M, 25° C., read-out: Solubility at 1 hr): 13 mg/mL
- solubility at 1 h ([4]; USP buffer with DL arginine, DL arginine 0.1 M, 25° C., read-out: Solubility at 1 hr): 19 mg/mL
- solubility at 1 h ([4]; USP buffer with DL arginine, DL arginine 0.5 M, 25° C., read-out: Solubility at 1 hr): 142 mg/mL
- solubility at 1 h ([4]; USP buffer with DL arginine, DL arginine 1.0 M, 25° C., read-out: Solubility at 1 hr): 233 mg/mL
- solubility at 1 h ([4]; USP buffer with DL arginine, DL arginine 2.0 M, 25° C., read-out: Solubility at 1 hr): 226 mg/mL
- solubility at 1 h ([5]; L-arginine mixtures, at L-arginine concentrations of 0.5 M and higher, read-out: solubility): > 200 mg/mL
- solubility at 1 h ([5]; USP buffer with L-arginine, L-arginine 0.05 M, 25° C., read-out: Solubility at 1 hr): 39 mg/mL
- solubility at 1 h ([5]; USP buffer with L-arginine, L-arginine 0.1 M, 25° C., read-out: Solubility at 1 hr): 82 mg/mL
- solubility at 1 h ([5]; USP buffer with L-arginine, L-arginine 0.5 M, 25° C., read-out: Solubility at 1 hr): 226 mg/mL
- solubility at 1 h ([6]; histidine 0.05 M): 43 mg/mL
- solubility at 1 h ([6]; histidine 0.1 M): 75 mg/mL
- solubility [7]: ~36 mg/mL
